Assay results from ChEMBL document CHEMBL1201862, “PubChem BioAssay data set” (2004).
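Each compound was tested at five concentrations against cells in 96-well plates for 48 hours. GI50 = concentration required for 50% inhibition of growth.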 Calls of active or inactive are those of the source. Rule as the data show it: active = GI50 up to about 1.1 µM and inactive = higher.

How the values were obtained:
Assay in all cases: NCI-60 cell line screen, 48 h
CCRF-CEM = system: CCRF-CEM
DLD-1 = system: DLD-1
EKVX = system: EKVX
HOP-92 = system: HOP-92
KM-20L2 = system: KM-20L2
MCF7 = system: MCF7
MOLT-4 = system: MOLT-4
NCI-H460 = system: NCI-H460
NCI/ADR-RES = system: NCI/ADR-RES
OVCAR-3 = system: OVCAR-3
OVCAR-8 = system: OVCAR-8
SF-539 = system: SF-539
SN12C = system: SN12C
SNB-78 = system: SNB-78
SW-620 = system: SW-620
UACC-257 = system: UACC-257

Measured: GI50

O=C(N[C@@H](c1ccccc1)[C@@H](O)C(=O)OCc1ccc2c(c1)OCO2)c1ccccc1
inactive: CCRF-CEM > 100 µM | DLD-1 > 100 µM | EKVX > 100 µM | HOP-92 > 86.7 µM | KM-20L2 > 100 µM | MCF7 > 100 µM | MOLT-4 > 91.8 µM | NCI-H460 > 100 µM | NCI/ADR-RES > 42.1 µM | OVCAR-3 > 100 µM | OVCAR-8 > 100 µM | SF-539 > 100 µM | SN12C > 100 µM | SNB-78 > 100 µM | SW-620 > 100 µM | UACC-257 > 100 µM

CCOC(=O)/C=C/c1c[nH]c(=O)[nH]c1=O
inactive: CCRF-CEM > 75 µM | DLD-1 > 75 µM | EKVX > 75 µM | HOP-92 > 75 µM | KM-20L2 > 75 µM | MCF7 > 75 µM | MOLT-4 > 33.4 µM | NCI-H460 > 75 µM | NCI/ADR-RES > 75 µM | OVCAR-3 > 75 µM | OVCAR-8 > 75 µM | SF-539 > 75 µM | SN12C > 75 µM | SNB-78 > 75 µM | SW-620 > 47.3 µM | UACC-257 > 75 µM

CC1C(=O)CC(c2cccs2)N(N=O)C1c1cccs1 (configuration not stated)
inactive: CCRF-CEM 34 µM | DLD-1 70.3 µM | EKVX 57.1 µM | HOP-92 23.7 µM | KM-20L2 71 µM | MCF7 19.3 µM | MOLT-4 25.8 µM | NCI-H460 34.8 µM | NCI/ADR-RES 26.6 µM | OVCAR-3 47 µM | OVCAR-8 > 42 µM | SF-539 57.5 µM | SN12C 69.8 µM | SNB-78 35.7 µM | SW-620 54.6 µM | UACC-257 39.1 µM

CCOC(=O)NC(=O)c1cn(CCSCCOC(=O)NCCCCCCNC(=O)OCCSCCn2cc(C(=O)NC(=O)OCC)c(=O)n(C)c2=O)c(=O)n(C)c1=O
inactive: CCRF-CEM 30 µM | DLD-1 72.8 µM | EKVX > 100 µM | HOP-92 20.9 µM | KM-20L2 39.7 µM | MOLT-4 5.68 µM | NCI-H460 29.9 µM | OVCAR-3 23.8 µM | OVCAR-8 20.1 µM | SF-539 25.9 µM | SN12C 21.8 µM | SNB-78 > 100 µM | SW-620 29.8 µM | UACC-257 24.4 µM

O=C(O)/C=C/c1ccncc1
inactive: CCRF-CEM > 100 µM | DLD-1 > 100 µM | EKVX > 100 µM | HOP-92 > 100 µM | KM-20L2 > 100 µM | MOLT-4 > 100 µM | NCI-H460 > 100 µM | OVCAR-3 > 100 µM | OVCAR-8 > 100 µM | SF-539 > 100 µM | SN12C > 100 µM | SNB-78 > 100 µM | SW-620 > 100 µM | UACC-257 > 100 µM

CC(=O)C(=Cc1cn(C)c(=O)n(C)c1=O)C(C)=O
inactive: CCRF-CEM 49.4 µM | DLD-1 94.8 µM | EKVX 121 µM | HOP-92 2.62 µM | KM-20L2 85.7 µM | MCF7 159 µM | MOLT-4 119 µM | NCI-H460 92.3 µM | NCI/ADR-RES 93.1 µM | OVCAR-3 116 µM | OVCAR-8 126 µM | SF-539 103 µM | SN12C 99.1 µM | SNB-78 214 µM | SW-620 106 µM | UACC-257 85.9 µM
